According to patent US9969687B2, “Compounds useful as CCR9 modulators” (Norgine B.V., priority 2013, dated 2018):

Legend:
[1] = biological target: T1, CCR9 (Homo sapiens (Human), UniProt P51686); test: FLIPR calcium flux assay using hCCR9 over expressed cells (Chem1-hCCR9), TECK stimulation; format: cell-based; settings: Chem1-hCCR9 overexpressing cells
Description: Biological Activity: FLIPR Assay Using hCCR9 Over Expressed Cells
A calcium flux assay was used to determine the ability of the compounds to interfere with the binding between CCR9 and its chemokine ligand (TECK) in Chem1-hCCR9 overexpressing cells. hCCR9 overexpressing cells were seeded (25,000 cells/well) into black Poly-D-Lysine coated clear bottom 96-well plates (BD Biosciences, Cat #356640) and incubated overnight at 37° C./5% CO2 in a humidified incubator. Media was aspirated and cells washed twice with 100 μL assay buffer (1×HBSS, 20 mM HEPES) containing 2.5 mM Probenecid. A 0.3× Fluo-4 NW calcium dye was prepared in assay buffer containing 5 mM Probenecid and stored in the dark. Each well was loaded with 100 μL of 0.3× Fluo-4 NW calcium dye and incubated at 37° C./5% CO2 for 60 minutes and then at room temperature for 30 minutes. A half-log serially diluted concentration response curve was prepared at a 3× final assay concentration for each compound (10 μM-0.1 nM final assay concentration) and 50 μL of the compound then transferred to the cells (150 μL final volume) for 60 minutes prior to stimulation (30 minutes at 37° C./5% CO2 and 30 minutes at room temperature). TECK was diluted to 4× its EC80 in assay buffer (containing 0.1% [w/v] bovine serum albumin [BSA]) and 50 μL dispensed through the fluorometric imaging plate reader (FLIPR) instrument to stimulate the cells (200 μL final volume). The increase in intracellular calcium levels was measured with the FLIPR instrument. The potency of the compound as a CCR9 antagonist was calculated as an IC50 using GraphPad Prism software (variable slope four parameter). The Ki of the compound was determined from the IC50 values using the following equation. IC50/1+(Agonist (TECK) conc. used in assay/EC50 of agonist (TECK) generated on day of experiment) Ki calculation: […]

[2] = biological target: T1, CCR9; test: FLIPR calcium flux assay using MOLT4 cells, TECK stimulation; format: cell-based; settings: MOLT4 cells (human T-cell line)
Method in brief: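 MOLT4 cells in HBSS/20 mM HEPES with probenecid, Fluo-4 NW loaded, preincubated with compound (10 μM-0.1 nM final, half-log) for 60 min before TECK stimulation. Calcium rise read on FLIPR; IC50 from four-parameter fit, converted to Ki using TECK concentration and same-day TECK EC50.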

T1 sequence (P51686 whole entry): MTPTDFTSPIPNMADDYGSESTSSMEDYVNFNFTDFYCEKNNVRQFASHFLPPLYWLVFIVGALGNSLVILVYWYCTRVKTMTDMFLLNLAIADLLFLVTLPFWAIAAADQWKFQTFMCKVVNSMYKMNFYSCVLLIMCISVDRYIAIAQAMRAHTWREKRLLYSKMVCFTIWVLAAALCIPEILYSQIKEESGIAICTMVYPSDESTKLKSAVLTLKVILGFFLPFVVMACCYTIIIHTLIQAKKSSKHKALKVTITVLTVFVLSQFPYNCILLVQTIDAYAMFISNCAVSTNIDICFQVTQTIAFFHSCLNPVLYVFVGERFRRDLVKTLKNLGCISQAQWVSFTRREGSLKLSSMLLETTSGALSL

Row | Compound | Ki [1] [nM] | Ki [2] [nM]
1 | CC(C)(C)c1ccc(S(=O)(=O)Nc2ccc(Cl)c3c2C(=O)N(Cc2c(F)ccc[n+]2[O-])C3=O)cc1 [Compound 241] | 7 | 5
2 | COc1cncc(N2C(=O)c3c(Cl)ccc(NS(=O)(=O)c4ccc(C(C)(C)C)cc4)c3C2=O)c1C [Compound 242] | 56 | 18
3 | COc1ccc(N2C(=O)c3c(Cl)ccc(NS(=O)(=O)c4ccc(C(C)(C)C)cc4)c3C2=O)c(C)[n+]1[O-] [Compound 243] | 115 | 34
4 | Cc1cnccc1N1C(=O)c2c(Cl)ccc(NS(=O)(=O)c3ccc(C(C)(C)C)cc3)c2C1=O [Compound 244] | 3 | 6
5 | COc1c[n+]([O-])cc(N2C(=O)c3c(Cl)ccc(NS(=O)(=O)c4ccc(C(C)(C)C)cc4)c3C2=O)c1C [Compound 245] | 54 | 47
6 | COc1ncccc1CN1C(=O)c2c(Cl)ccc(NS(=O)(=O)c3ccc(C(C)(C)C)cc3)c2C1=O [Compound 247] | 51 | 78
7 | CC(C)(C)c1ccc(S(=O)(=O)Nc2ccc(Cl)c3c2C(=O)N(c2ccncn2)C3=O)cc1 [Compound 249] | 60 | 33
8 | CC(C)(C)c1ccc(S(=O)(=O)Nc2ccc(Cl)c3c2C(=O)N(c2ncccn2)C3=O)cc1 [Compound 250] | 56 | 23
9 | Cc1ccc(CN2C(=O)c3c(Cl)ccc(NS(=O)(=O)c4ccc(C(C)(C)C)cc4)c3C2=O)nc1 [Compound 251] | 148 | 51
10 | Cc1cccc(CN2C(=O)c3c(Cl)ccc(NS(=O)(=O)c4ccc(C(C)(C)C)cc4)c3C2=O)n1 [Compound 254] | 68 | 58
11 | Cn1cnc(N2C(=O)c3c(Cl)ccc(NS(=O)(=O)c4ccc(C(C)(C)C)cc4)c3C2=O)n1 [Compound 255] | 72 | 17
12 | Cc1cnc(C#N)c(N2C(=O)c3c(Cl)ccc(NS(=O)(=O)c4ccc(C(C)(C)C)cc4)c3C2=O)c1 [Compound 256] | 18 | 18
13 | CCc1c(OC)cncc1N1C(=O)c2c(Cl)ccc(NS(=O)(=O)c3ccc(C(C)(C)C)cc3)c2C1=O [Compound 257] | 21 | 25
14 | Cc1cncc(CN2C(=O)c3c(Cl)ccc(NS(=O)(=O)c4ccc(C(C)(C)C)cc4)c3C2=O)c1 [Compound 258] | 67 | 23
15 | Cc1ccc(CN2C(=O)c3c(Cl)ccc(NS(=O)(=O)c4ccc(C(C)(C)C)cc4)c3C2=O)[n+]([O-])c1 [Compound 259] | 45 | 13
16 | COc1ccc(N2C(=O)c3c(Cl)ccc(NS(=O)(=O)c4ccc(C(C)(C)C)cc4)c3C2=O)nc1C [Compound 260] | 22 | 16
17 | COc1ncc(C)cc1N1C(=O)c2c(Cl)ccc(NS(=O)(=O)c3ccc(C(C)(C)C)cc3)c2C1=O [Compound 261] | 11 | 16
18 | Cc1cc(CN2C(=O)c3c(Cl)ccc(NS(=O)(=O)c4ccc(C(C)(C)C)cc4)c3C2=O)c[n+]([O-])c1 [Compound 262] | 119 | 46
19 | Cc1cnc(C)c(N2C(=O)c3c(Cl)ccc(NS(=O)(=O)c4ccc(C(C)(C)C)cc4)c3C2=O)c1 [Compound 263] | 25 | 11
20 | CC(C)(C)c1ccc(S(=O)(=O)Nc2ccc(Cl)c3c2C(=O)N(c2ccncc2)C3=O)cc1 [Compound 264] | 18 | 11
21 | CCc1c(OC)c[n+]([O-])cc1N1C(=O)c2c(Cl)ccc(NS(=O)(=O)c3ccc(C(C)(C)C)cc3)c2C1=O [Compound 266] | 25 | 10

Row | Compound | Ki [1] [nM] | Ki [2] [nM]
22 | Cc1cc(N2C(=O)c3c(Cl)ccc(NS(=O)(=O)c4ccc(C(C)(C)C)cc4)c3C2=O)c(C)[n+]([O-])c1 [Compound 267] | 59 | 27
23 | Cc1nccnc1N1C(=O)c2c(Cl)ccc(NS(=O)(=O)c3ccc(C(C)(C)C)cc3)c2C1=O [Compound 270] | 61 | 23
24 | CCOc1ccncc1N1C(=O)c2c(Cl)ccc(NS(=O)(=O)c3ccc(C(C)(C)C)cc3)c2C1=O [Compound 271] | 35 | 9
25 | Cc1c[n+]([O-])ccc1N1C(=O)c2c(Cl)ccc(NS(=O)(=O)c3ccc(C(C)(C)C)cc3)c2C1=O [Compound 272] | 29 | 9
26 | CC(C)(C)c1ccc(S(=O)(=O)Nc2ccc(Cl)c3c2C(=O)N(c2cccc[n+]2[O-])C3=O)cc1 [Compound 274] | 50 | 34
27 | Cc1cnc(N2C(=O)c3c(Cl)ccc(NS(=O)(=O)c4ccc(C(C)(C)C)cc4)c3C2=O)cn1 [Compound 275] | 54 | 32
28 | CC(C)(C)c1ccc(S(=O)(=O)Nc2ccc(Cl)c3c2C(=O)N(c2cc(F)ccn2)C3=O)cc1 [Compound 276] | 91 | 22
29 | COc1cncc(N2C(=O)c3c(C#N)ccc(NS(=O)(=O)c4ccc(C(C)(C)C)cc4)c3C2=O)c1 [Compound 278] | 17 | 10
30 | CC(C)(C)c1ccc(S(=O)(=O)Nc2ccc(C#N)c3c2C(=O)N(Cc2ccccn2)C3=O)cc1 [Compound 279] | 17 | 18
31 | CC(C)(C)c1ccc(S(=O)(=O)Nc2ccc(Cl)c3c2C(=O)N(c2ccc[nH]c2=O)C3=O)cc1 [Compound 281, 4-(tert-butyl)-N-(7-chloro-1,3-dioxo-2-(2-oxo-1,2-dihydropyridin-3-yl)isoindolin-4-yl)benzenesulfonamide] | 4 | 5
32 | Cn1cc(N2C(=O)c3c(Cl)ccc(NS(=O)(=O)c4ccc(C(C)(C)C)cc4)c3C2=O)ccc1=O [Compound 282] | 23 | 9
33 | Cc1cc(C)c(CN2C(=O)c3c(Cl)ccc(NS(=O)(=O)c4ccc(C(C)(C)C)cc4)c3C2=O)c(=O)[nH]1 [Compound 283] | 20 | 15
34 | CC(C)(C)c1ccc(S(=O)(=O)Nc2ccc(Cl)c3c2C(=O)N(Cc2ccc[nH]c2=O)C3=O)cc1 [Compound 284] | 12 | 7
35 | Cc1cc(N2C(=O)c3c(Cl)ccc(NS(=O)(=O)c4ccc(C(C)(C)C)cc4)c3C2=O)cn(C)c1=O [Compound 285] | 78 | 16
36 | CCOC(=O)c1ncccc1N1C(=O)c2c(Cl)ccc(NS(=O)(=O)c3ccc(C(C)(C)C)cc3)c2C1=O [Compound 286, ethyl 3-(4-((4-(tert-butyl)phenyl)sulfonamido)-7-chloro-1,3-dioxoisoindolin-2-yl)picolinate] | 14 | 10
37 | CC(C)(C)c1ccc(S(=O)(=O)Nc2ccc(Cl)c3c2C(=O)N(c2cccnc2C(=O)O)C3=O)cc1 [Compound 287, 3-(4-((4-(tert-butyl)phenyl)sulfonamido)-7-chloro-1,3-dioxoisoindolin-2-yl)picolinic acid] | 10 | 22
38 | CC(C)(C)c1ccc(S(=O)(=O)Nc2ccc(Cl)c3c2C(=O)N(c2ccsc2C(=O)O)C3=O)cc1 [Compound 288] | 23 | 3
39 | CCOC(=O)c1c(N2C(=O)c3c(Cl)ccc(NS(=O)(=O)c4ccc(C(C)(C)C)cc4)c3C2=O)ccc[n+]1[O-] [Compound 290] | 14 | 7
40 | COC(=O)c1cc(N2C(=O)c3c(Cl)ccc(NS(=O)(=O)c4ccc(C(C)(C)C)cc4)c3C2=O)n(C)n1 [Compound 291] | 15 | 5
41 | COC(=O)c1cc(N2C(=O)c3c(Cl)ccc(NS(=O)(=O)c4ccc(C(C)(C)C)cc4)c3C2=O)nn1C [Compound 292] | 16 | 11
